Test results from publication PMC12406652 (Antimicrobial Agents and Chemotherapy, 2025).
Marks after values point to notes of the source that are not given here.

Legend:
[1] = Urinary recovery on Day 10 after multiple doses of CTB + LED-E q8h (VNRX-7145-102 Part 3); settings: for Ae0–8 / Fe0–8 / CL renal: urine, geometric mean (geometric CV %); for CL renal: human, oral, CLr
[2] = Urinary pharmacokinetics on Day 10 after multiple doses of LED-E q8h; format: in vivo, human; settings: urine, geometric mean (geometric CV %); for CL renal: human, oral
Experimental: Quantitation used separate weighted 1 /x^2 linear least-squares regression analyses generated from calibration standards. Exploratory screening for metabolites was performed for some samples. […] Plasma pharmacokinetic parameters were calculated using noncompartmental analysis of the plasma and urine concentration-time data. […] AUCinf and Cmax were natural log-transformed before analysis, using a linear mixed effects model. […] In both studies, plasma pharmacokinetic parameters were calculated using WinNonlin (Certara; Radnor, PA), and urine pharmacokinetic parameters were calculated using SAS (SAS Institute; Cary, NC).

healthy participants = assay: Safety and tolerability (treatment-emergent adverse events), studies VNRX-7145-101 and VNRX-7145-102; format: in vivo, human
Experimental: Safety was assessed via ongoing monitoring of adverse events, symptom-directed physical examinations, and changes in clinical laboratory measures, vital signs, and ECGs.

[3] = Plasma pharmacokinetics on Day 10 after multiple doses of CTB + LED-E q8h (VNRX-7145-102 Part 3); settings: for AUC: AUCtau; for AUC / Cmax / half-life: geometric mean (CV %)
[4] = Plasma pharmacokinetics after single ascending doses of LED-E (VNRX-7145-101 Part 1); format: in vivo; settings: human, oral; for Vd/F: read-out: Vz/F; for Tmax: median (range)
Experimental: (§1) Quantitation used separate weighted 1 /x^2 linear least-squares regression analyses generated from calibration standards. Exploratory screening for metabolites was performed for some samples. […] Single-dose plasma pharmacokinetic parameters were determined in Part 1, and both single-dose (Day 1) and multiple-dose (Day 12) parameters were determined in Part 2. […] Dose proportionality was analyzed using a power model in which pharmacokinetic exposure parameters and dose were converted to the natural log and linear regression results were reported, with the slope as the power estimate ([15]). […] In Part 2, achievement of steady-state concentrations was assessed using Tukey’s multiple comparison test for pre-dose and all dosing days (Days 2 to 10) for each dose level separately. In both studies, plasma pharmacokinetic parameters were calculated using WinNonlin (Certara; Radnor, PA), and urine pharmacokinetic parameters were calculated using SAS (SAS Institute; Cary, NC).

[5] = Urinary pharmacokinetics after single doses of LED-E; format: in vivo, human; settings: urine, geometric mean (geometric CV %); for CL renal: human, oral
Experimental: Plasma and urine pharmacokinetics samples were assayed for LED-E, LED, and CTB, as appropriate using validated bioanalytical methods. […] Quantitation used separate weighted 1 /x^2 linear least-squares regression analyses generated from calibration standards. Exploratory screening for metabolites was performed for some samples. In both studies, plasma pharmacokinetic parameters were calculated using WinNonlin (Certara; Radnor, PA), and urine pharmacokinetic parameters were calculated using SAS (SAS Institute; Cary, NC).

[6] = Plasma pharmacokinetics on Day 10 after multiple doses of LED-E q8h (VNRX-7145-101 Part 2, VNRX-7145-102 Part 2); format: in vivo, human; settings: human, oral, plasma; for AUC / Cmax / Vd/F / half-life: geometric mean (CV %); for Vd/F: read-out: Vz/F; for Tmax: median (range); for half-life: read-out: t1/2 (converted)
Experimental: as §1, with “Single-dose plasma pharmacokinetic parameters were determined in Part 1, and both single-dose (Day 1) and multiple-dose (Day 12) parameters were determined in Part 2.” left out, “separately. […] Plasma pharmacokinetic parameters were calculated using noncompartmental analysis of the plasma and urine concentration-time data. […] AUCinf and Cmax were natural log-transformed before analysis, using a linear mixed effects model. […]” for “separately.”

[7] = Day 10, CTB 400 mg + LED-E 300 mg q8h
[8] = Day 10, CTB 400 mg + LED-E 500 mg q8h
[9] = multiple doses LED-E 500 mg q8h, after last dose (Day 10)
[10] = human, oral, Day 10, CTB 400 mg + LED-E 300 mg q8h
[11] = human, oral, Day 10, CTB 400 mg + LED-E 500 mg q8h
[12] = 1000 mg, single dose LED-E 1,000 mg, geometric mean (CV %)
[13] = single dose LED-E 100 mg, geometric mean (CV %)
[14] = single dose LED-E 200 mg, geometric mean (CV %)
[15] = single dose LED-E 300 mg, geometric mean (CV %)
[16] = single dose LED-E 500 mg, geometric mean (CV %)
[17] = single dose LED-E 800 mg, geometric mean (CV %)

With `CCC(=O)N[C@H]1Cc2cccc(C(=O)OCOC(=O)C(CC)CC)c2OB1O` [Ledaborbactam etzadroxil] the “Ae0–8” value [1, 7] was 0.0113 (41.4) mg, the “Fe0–8” value [1, 7] was 0.00377 (41.4) % and the “Ae0–8” value [1, 8] was 0.0271 (58.4)^d mg. The “Fe0–8” value [1, 8] was 0.00542 (58.4)^d %, the “Fe0-8 recovered in urine, of the last dose” value ([1]; Day 10, across CTB 400 mg + LED-E 300 mg q8h and CTB 400 mg + LED-E 500 mg q8h) was “less than 0.01%” and the CL renal [1, 7] was 0.402 mL/min. It also gave a CL renal [1, 8] of 0.42 mL/min, a CL renal ([2]; multiple doses LED-E 150 mg q8h) of 0.247 mL/min and a CL renal ([2]; multiple doses LED-E 300 mg q8h) of 0.121 mL/min. For the same molecule, the CL renal ([2]; multiple doses LED-E 500 mg q8h) was 0.433 mL/min, the “Ae0–48” value ([2]; multiple doses LED-E 75 mg q8h, after last dose (Day 10)) was “below the limit of quantification” and the “Ae0–48” value ([2]; multiple doses LED-E 150 mg q8h, after last dose (Day 10)) was 0.00488 (47.9) mg. For the same molecule, the “Ae0–48” value ([2]; multiple doses LED-E 300 mg q8h, after last dose (Day 10)) was 0.00378 (218) mg, the “Ae0–8” value [2, 9] was 0.0273 (38.5) mg and the “Ae0–48” value [2, 9] was 0.0273 (38.5) mg. For the same molecule, the “Ae0–48” value ([2]; multiple doses LED-E 500 mg q8h, after last dose (Day 10), listed as LED-E) was 0.03 mg, the “Participants with fatigue (TEAE)” value (healthy participants; LED-E-dosed participants) was 9.2% and the “Participants with headache (TEAE)” value (healthy participants; LED-E-dosed participants) was 20.2%. For the same molecule, the Tolerability (healthy participants; all dose levels, alone or in combination with CTB) was “well tolerated”, the “Participants with gastrointestinal TEAEs” value (healthy participants; n = 109, pooled studies, all mild) was 27.5% and the “Serious or severe TEAEs” value (healthy participants; single or multiple doses, alone or with CTB) was “no serious or severe TEAEs”. The “Change in geometric mean AUCtau from the first to the last dose” value ([3]; Day 10, CTB 400 mg + LED-E 300 or 500 mg q8h, both dose groups) was “unchanged”, the AUC [3, 10] was 463 ng·h/mL and the AUC [3, 11] was 1090 ng·h/mL. The Cmax [3, 10] was 467 ng/mL, the Cmax [3, 11] was 1180 ng/mL and the Tmax ([3]; human, oral, Tmax, Day 10, CTB 400 mg + LED-E 300 mg q8h, median (range)) was 0.5 h. For the same molecule, the half-life ([3]; human, oral, t1/2, Day 10, CTB 400 mg + LED-E 300 mg q8h) was 7.68 h, the half-life ([3]; human, oral, t1/2, Day 10, CTB 400 mg + LED-E 500 mg q8h) was 10.7 h and the AUC(0-inf) [4, 12] was 2300 ng·h/mL. For the same molecule, the Cmax [4, 12] was 1840 ng/mL, the Vd/F [4, 12] was 2880 L and the half-life ([4]; 1000 mg, single dose LED-E 1,000 mg, geometric mean (CV %), read-out: t1/2 (converted)) was 4.59 h. It also gave a half-life ([4]; across single doses LED-E 100 to 1,000 mg, read-out: Geometric mean t1/2) of 2.8 to 4.7 h, an AUC(0-inf) [4, 13] of 177 ng·h/mL and a Cmax [4, 13] of 167 ng/mL. For the same molecule, the Vd/F [4, 13] was 2290 L, the half-life ([4]; single dose LED-E 100 mg, geometric mean (CV %), read-out: t1/2 (converted)) was 2.81 h and the Tmax ([4]; single dose LED-E 100 mg) was 0.5 h. The AUC(0-inf) [4, 14] was 249 ng·h/mL, the Cmax [4, 14] was 167 ng/mL and the half-life ([4]; single dose LED-E 200 mg, geometric mean (CV %), read-out: t1/2 (converted)) was 3.34 h. It also gave a Tmax ([4]; single dose LED-E 200 mg) of 0.5 h, an AUC(0-inf) [4, 15] of 439 ng·h/mL and a Cmax [4, 15] of 347 ng/mL. The half-life ([4]; single dose LED-E 300 mg, geometric mean (CV %), read-out: t1/2 (converted)) was 3.63 h, the Tmax ([4]; single dose LED-E 300 mg) was 0.5 h and the AUC(0-inf) [4, 16] was 1290 ng·h/mL. It also gave a Cmax [4, 16] of 917 ng/mL, a Vd/F [4, 16] of 2640 L and a half-life ([4]; single dose LED-E 500 mg, geometric mean (CV %), read-out: t1/2 (converted)) of 4.7 h. The AUC(0-inf) [4, 17] was 1720 ng·h/mL, the Cmax [4, 17] was 1160 ng/mL and the Vd/F [4, 17] was 2260 L. For the same molecule, the half-life ([4]; single dose LED-E 800 mg, geometric mean (CV %), read-out: t1/2 (converted)) was 3.37 h, the Tmax ([4]; single dose LED-E 800 mg) was 0.5 h and the CL renal ([5]; single dose LED-E 300 mg) was 0.22 mL/min. It also gave a CL renal ([5]; single dose LED-E 500 mg) of 0.275 mL/min, a CL renal ([5]; single dose LED-E 800 mg) of 0.292 mL/min and a CL renal ([5]; single dose LED-E 1000 mg) of 0.393 mL/min. The “Ae0–8” value ([5]; single dose LED-E 300 mg) was 0.00779 (51.0) mg, the “Ae0–8” value ([5]; single dose LED-E 500 mg) was 0.0212 (38.4) mg and the “Ae0–48” value ([5]; single dose LED-E 500 mg) was 0.0212 (38.4) mg. The “Ae0–8” value ([5]; single dose LED-E 800 mg) was 0.0301 (49.2) mg, the “Ae0–48” value ([5]; single dose LED-E 800 mg) was 0.0301 (49.2) mg and the “Ae0–8” value ([5]; single dose LED-E 1000 mg) was 0.0542 (68.6) mg. For the same molecule, the “Ae0–48” value ([5]; single dose LED-E 1000 mg) was 0.0542 (68.6) mg, the AUC ([6]; Day 10, LED-E 75 mg q8h, 0 to 8 h post-dose) was 85.5 ng·h/mL and the Cmax ([6]; Day 10, LED-E 75 mg q8h) was 122 ng/mL. For the same molecule, the Vd/F ([6]; Day 10, LED-E 75 mg q8h) was 3880 L, the Tmax ([6]; Day 10, LED-E 75 mg q8h) was 0.5 h and the AUC ([6]; Day 10, LED-E 150 mg q8h) was 309 ng·h/mL. The Cmax ([6]; Day 10, LED-E 150 mg q8h) was 447 ng/mL, the Vd/F ([6]; Day 10, LED-E 150 mg q8h) was 3350 L and the Tmax ([6]; Day 10, LED-E 150 mg q8h) was 0.5 h. It also gave an AUC ([6]; Day 10, LED-E 300 mg q8h) of 480 ng·h/mL, a Cmax ([6]; Day 10, LED-E 300 mg q8h) of 629 ng/mL and a Vd/F ([6]; Day 10, LED-E 300 mg q8h) of 6080 L. The Tmax ([6]; Day 10, LED-E 300 mg q8h) was 0.5 h, the AUC ([6]; Day 10, LED-E 500 mg q8h) was 1050 ng·h/mL and the Cmax ([6]; Day 10, LED-E 500 mg q8h) was 919 ng/mL. For the same molecule, the Vd/F ([6]; Day 10, LED-E 500 mg q8h) was 6290 L, the half-life ([6]; 75 mg, Day 10, LED-E 75 mg q8h) was 3.07 h and the half-life ([6]; 150 mg, Day 10, LED-E 150 mg q8h) was 4.78 h. It also gave a half-life ([6]; 300 mg, Day 10, LED-E 300 mg q8h) of 6.75 h and a half-life ([6]; 500 mg, Day 10, LED-E 500 mg q8h) of 9.14 h.
